From the pKa sets of Baltruschat and Czodrowski (2020) come the findings set out here.

The term pKa denotes the negative logarithm of the acid dissociation constant. The low end stands for a stronger acid or weaker base, the high end for a weaker acid or stronger base. `COc1nc(-n2nc(C)cc2O)nc(C)c1C` had a pKa (acidic group) of 7.64.
Turning to `Cc1nc(N)c2cnn(C)c2n1`, under “basic group”, the pKa amounted to 5.
Turning to `CC[NH+](CC)CCCC(C)Nc1ccnc2ccc(OC)cc12` (configuration not stated), the pKa (basic group) turned out to be 8.7.
Still for that read-out and setting: with `COC(=O)c1cccc(N)c1` the figure was 3.55; with `O=[N+]([O-])c1cc(-c2ccccc2)nnc1NCC[NH+]1CCOCC1`, 0.2.
As to `CCCCCCCCCCCCCCCCCCNCCCCCCCCCCCCCCCCCC`, under “basic group”, the pKa was 11.
Take `c1coc(CNc2ncnc3[nH]ncc23)c1`: the pKa (basic group) came to 4.01.
The same measure, in the same setting: in the case of `[NH3+]CCNCCO` it was 6.66.
Still for that read-out and setting: in the case of `CCCCCCCCCCN(CCO)CC(O)CC` (configuration not stated) it was 7.2.
Under “basic group”, `CCCCCCCCCCNc1ccccc1` displayed a pKa of 4.56.
Consider `C[N+](C)(C)NC(=O)c1cccc([N+](=O)[O-])c1`, for which the pKa (acidic group) stood at 3.16.
`O=C(Cc1ccccc1Nc1c(Cl)cccc1Cl)OCCN1CCOCC1` had a pKa (basic group) of 7.52.
Same read-out and setting: with `NCC(=O)[O-]` the figure was 9.65; with `CCCCNN`, 7.82.
For `Cc1cc(Nc2ccc([O-])cc2)cc(C)c1O`, the pKa (acidic group) came out at 10.9.
Consider `OCCCc1ccncc1`, for which the pKa (basic group) worked out at 5.9.
For the setting “acidic group”, `O=C(O)C[C@]1(O)C[C@H]2C=C[C@@H]1C2` yielded a pKa of 4.36.
Where the note is “basic group”, `CC(C)(C)CC(=O)n1cnc(Br)c1` showed a pKa of 4.
Same read-out and setting: with `CC(Cl)CN(C)C` (configuration not stated) the figure was 8.12; with `[NH3+]c1ccc(-c2cnc(-c3ccccc3)o2)cc1`, 0.5.
Regarding `C=C(C)C(=O)OC(C)CN(CC)CC` (configuration not stated), the pKa (basic group) was found to be 8.65.
Regarding `Cc1cccc(C)c1O`, the pKa (acidic group) was 10.6.
On the same count and under the same terms, with `CCC[NH+](CCC)CCCNC(=O)/C=N/O` the figure was 8.73; with `O=C(CC(=O)c1ccccc1)Nc1ccccc1[N+](=O)[O-]`, 9.54.
For `CC1(C)CCC(C2CCC(C)(C)[NH2+]2)N1` (configuration not stated), the pKa (basic group) came out at 6.95.
In turn, `C[NH2+]CC(=O)c1ccc(O)cc1` gave a pKa (acidic group) of 7.7.
Consider `O=C([O-])C1CCCN1` (configuration not stated), for which the pKa (basic group) was 10.6.
For `C[C@H](CCCN)[C@H]1CC[C@H]2[C@@H]3CC[C@@H]4C[C@H](O)CC[C@]4(C)[C@H]3CC[C@]12C`, for the setting “basic group”, the pKa came out at 9.7.
Still for that read-out and setting: with `CCN1CCC[C@@H]1CNC(=O)c1c(OC)ccc(Cl)c1[O-]` the figure was 9.54.
For `CC(=O)c1ccccc1NN=C1C(=O)CC(C)(C)CC1=O`, under “acidic group”, the pKa was 10.5.
The compound `c1cc(-c2nn[nH]n2)cc(-c2nnn[nH]2)c1` returned a pKa (acidic group) of 3.38.
As for `C[n+]1c([O-])ccnc1[O-]`, the pKa (basic group) is 9.94.
Take `Oc1onc2c1CC[NH+](Cc1ccccc1)CC2`: the pKa (acidic group) is 3.3.
The compound `CC(=O)[n+]1cccc(C)c1` showed a pKa (acidic group) of 5.81.
`O=C(O)C(c1ccc(-c2ccccc2)cc1)C(O)Cc1ccccc1` (configuration not stated) registered a pKa (acidic group) of 4.29.
Same read-out and setting: in the case of `CN1C(=O)NCc2[nH]cnc21` it was 11.1.
Turning to `CCC[Si](C)(CCC)CC(=O)O`, the pKa (acidic group) was 5.65.
For the compound `COC(=O)[C@@H]1[C@@H](O)C[C@H]2CC[C@@H]1N2C`, the pKa (basic group) worked out at 8.21.
In turn, `CC(=O)Nc1ccc(O)cc1` returned a pKa (acidic group) of 9.5.
On the same count and under the same terms, in the case of `NC1=[NH+][C@@H](CC(=O)O)C(=O)N1CCCC([NH3+])C(=O)[O-]` (some centres not stated) it was 3.26.
As for `C=C(C)C(N)O` (configuration not stated), under “basic group”, the pKa is 8.
`Cn1nnnc1CC(=O)O` gave a pKa (acidic group) of 2.83.
On the same count and under the same terms, in the case of `O=C(O)/C=C\c1ccc(O)cc1` it was 4.08.
For the setting “basic group”, `Cc1cnc2c(c1)c(C)c(C)c1cc(C)cnc12` returned a pKa of 5.54.
As to `Cc1cccc(-c2nnn[nH]2)c1`, for the setting “acidic group”, the pKa is 4.15.
Regarding `CC(=O)Nc1ccccn1`, the pKa (basic group) was 4.09.
On to `Nn1cnnc1S`, for which, for the setting “acidic group”, the pKa amounted to 7.47.
Consider `Brc1ccccn1`, for which the pKa (basic group) is 0.9.
Regarding `CC1(C)CC2CCN1C(=O)C2` (configuration not stated), under “basic group”, the pKa was determined as 5.33.
The same measure, in the same setting: with `Nc1ccc(C(O)(c2ccccc2)c2ccc(N)cc2)cc1` the figure was 5.83; with `C=Cc1ccccn1`, 4.92.
The compound `Cc1ccc(C(O)C(C(=O)O)c2ccc(C3CCCCC3)cc2)cc1` (configuration not stated) displayed a pKa (acidic group) of 4.18.
For `Cn1c(=S)[nH]c2cncnc21`, the pKa (acidic group) was determined as 7.48.
`CN(CC[NH3+])CC[NH+](C)C` showed a pKa (basic group) of 3.19.
The compound `O=C(O)C[Se]c1ccc([N+](=O)[O-])cc1` showed a pKa (acidic group) of 3.46.
With `C[NH+](C)Cc1ccc(O)cc1`, the pKa (acidic group) came out at 8.83.
Same read-out and setting: with `Cc1ccc(C(N)=S)cc1` the figure was 12.8.
On to `O=[N+]([O-])c1ccc(-n2nnnc2/C=C/c2ccc(Cl)cc2)cc1`, for which the pKa (basic group) is -3.05.
In the case of `COc1cc(OC)c2c(c1Cl)O[C@]1(C(=O)CC(=O)C[C@@H]1C)C2=O`, the pKa (acidic group) amounted to 4.49.
`NCCc1cccc(O)c1O` yielded a pKa (basic group) of 8.6.
For the setting “basic group”, `CC(N)C(=O)[O-]` (configuration not stated) gave a pKa of 9.83.
Under “acidic group”, `CC(=O)N1CCC[C@H]1C(=O)O` came in with a pKa of 3.21.
Where the note is “basic group”, `NCCCNCCC[NH3+]` returned a pKa of 9.72.
In turn, `OCCNCCO` came in with a pKa (basic group) of 9.04.
The compound `c1ccc(-c2ccn[nH]2)[nH+]c1` gave a pKa (basic group) of -1.1.
On the same count and under the same terms, in the case of `CN(C)c1ccc2cc3ccc(N(C)C)cc3[nH+]c2c1` it was 0.4.
The same measure, in the same setting: with `O=C1CN2CCC1CC2` the figure was 7.27.
Turning to `NS(=O)(=O)c1ccc(Cl)c(Cl)c1`, the pKa (acidic group) was determined as 8.94.
Regarding `Oc1ccc2c(cnc3ccccc32)c1`, the pKa amounted to 8.68 (acidic group) and 4.39 (basic group).
Take `Cc1ccc(O)c([N+](=O)[O-])c1`: the pKa (acidic group) came to 7.4.
Regarding `CC(=O)Nc1c(C)n(C)n(-c2ccccc2)c1=O`, the pKa (basic group) is 0.18.
With `CC[NH+](CC)Cc1cc(Cl)cc(Cl)c1O`, the pKa (acidic group) turned out to be 5.95.
Consider `c1ccc(N2CCCC2)cc1`, for which the pKa (basic group) worked out at 4.3.
On the same count and under the same terms, in the case of `Cc1cc(N)nc(C)n1` it was 6.85; in that of `CCOc1ccc2[nH]c(CC(C)C)nc2c1`, 6.07.
Same read-out and setting: with `CCN(C)C` the figure was 10.1; with `CN(C)CCCO`, 9.76; with `CC(C)NCCCCCC[NH2+]C(C)C`, 10.9.
In turn, `COc1nc(N)c2[nH]cnc2n1` yielded a pKa (acidic group) of 10 and a pKa (basic group) of 3.7.
`C[N+](C)(C)CCS` displayed a pKa (acidic group) of 7.98.
As to `Cc1ccc(C)c(C(=N)c2ccccc2)c1`, the pKa (basic group) came to 6.79.
As for `CC[NH2+]CC[SeH]`, the pKa (acidic group) was determined as 5.04.
The same measure, in the same setting: in the case of `NS(=O)(=O)c1nccs1` it was 8.25.
Take `C=CCN(CC(C)O)CC(C)O` (configuration not stated): the pKa (basic group) stood at 8.2.
Compound `CCCCCCCCCCCCCCCN` registered a pKa (basic group) of 10.6.
In the case of `O=C1CCc2cc([N+](=O)[O-])ccc2C1`, the pKa (acidic group) amounted to 10.1.
The compound `[NH3+]CCc1cccnc1` came in with a pKa (basic group) of 4.64.
Turning to `CCOC(=O)C1(CCC(=O)O)CCC(=O)NC1=O` (configuration not stated), the pKa (acidic group) stood at 4.35.
`Cc1cccc2[nH]cnc12` displayed a pKa (basic group) of 5.67.
The same measure, in the same setting: in the case of `CC(C)CNc1ccccc1` it was 4.84.
Consider `CNC(=O)c1ccccc1O`, for which the pKa (acidic group) is 8.03.
In turn, `CN(C)CC(CSC#N)SC#N` (configuration not stated) had a pKa (basic group) of 6.1.
With `O=C(O)c1ccoc1`, the pKa reads like this: (acidic group) 3.94; (basic group) -0.59.
Under “acidic group”, `O=C(O)[C@H]1C[C@@H]1Cl` registered a pKa of 4.12.
For `N#CC(O)=C(C#N)C#N`, for the setting “acidic group”, the pKa amounted to 1.9.
With `Cn1c2c(s/c1=N\N)CCCC2`, where the note is “basic group”, the pKa was found to be 8.2.
Compound `Cc1nnn[nH]1` showed a pKa (acidic group) of 5.52.
Still for that read-out and setting: in the case of `O=[N+]([O-])c1ccc2cc(O)ccc2c1` it was 7.69.
Under “basic group”, `CSc1nc(C)cc(=O)n1C` yielded a pKa of 0.9.
Where the note is “acidic group”, `CC(C)CCOc1ccccc1/C=C\C(=O)O` had a pKa of 4.38.
The compound `O=C(O)C[NH+](CC(=O)O)Cc1ccccc1O` displayed a pKa (acidic group) of 2.2.
Take `COC(=O)Nc1ncnc2nc[nH]c12`: the pKa reads like this: (acidic group) 9.68; (basic group) 2.27.
With `Cc1c[nH]c(C)c1C`, where the note is “basic group”, the pKa was 3.94.
Same read-out and setting: in the case of `c1ccc2c(c1)CCC2N(c1ccc2ccccc2c1)C1CCc2ccccc21` (configuration not stated) it was 0.25.
`COC(=O)c1ccc(O)cc1` returned a pKa (acidic group) of 8.34.
In turn, `N[C@@H]1C[C@H]2CCCC[C@@H]2C[C@@H]1[NH3+]` displayed a pKa (basic group) of 6.36.
`CCCNc1ccccc1`: where the note is “basic group”, the pKa amounted to 5.12.
Still for that read-out and setting: in the case of `CN(C)CCCN(C)C(=O)/C=N/[O-]` it was 9.83.
`CC(=O)[n+]1ccc(C)cc1` gave a pKa (acidic group) of 6.15.
In turn, `CC(=O)Nc1cccc(O)c1` had a pKa (acidic group) of 9.38.
For the setting “basic group”, `[O-]c1ccncc1` yielded a pKa of 11.1.
In turn, `[O-][n+]1cccc2ccccc21` had a pKa (basic group) of 0.7.
The compound `N[C@H]1C[C@@H]2CCCC[C@H]2C[C@@H]1[NH3+]` came in with a pKa (basic group) of 6.97.
With `Nc1cc([NH3+])ccc1O`, the pKa (basic group) came out at 3.05.
Same read-out and setting: with `CN(C)c1ncnc2c1cnn2C` the figure was 4.06.
For the compound `O=C(O)[C@@H]1C[C@@H]1c1ccccc1`, the pKa (acidic group) turned out to be 4.82.
Still for that read-out and setting: with `Cc1cc([N+](=O)[O-])cc(C)c1O` the figure was 7.22.
`Brc1cccnc1` yielded a pKa (basic group) of 2.94.
`Cc1ccc(C(=S)Nc2cccc(F)c2)cc1` showed a pKa (acidic group) of 10.6.
`COc1ncnc2ccccc12` returned a pKa (basic group) of 3.13.
In turn, `COc1cccc(=O)c(O)c1` came in with a pKa (acidic group) of 7.24.
Where the note is “basic group”, `CSc1nccc(C)n1` showed a pKa of 1.95.
The same measure, in the same setting: in the case of `COc1ccc(S(=O)(=O)CCN2CCCCC2)c(OC)c1OC` it was 7.24.
Take `CC/C=C/Cc1nc(C(=O)[O-])cn1[C@H](C(=O)[O-])C(C)(C)S`: the pKa was 10.2 (acidic group) and 6.4 (basic group).
Take `O=c1c2[nH]cnc2ncn1O`: the pKa (acidic group) was determined as 5.66.
Turning to `COC(=O)[C@H](NC(=O)Cc1ccccc1)[C@@H]1SC(C)(C)[C@H]2C(=O)NC(=S)N12`, the pKa (acidic group) came out at 8.
With `O=C(O)CC(c1[nH]cc[nH+]1)c1[nH]cc[nH+]1`, the pKa (acidic group) was 2.79.
For `CCC(C)N` (configuration not stated), for the setting “basic group”, the pKa came to 10.6.
For `C1CC2CC1NN2`, the pKa (basic group) worked out at 7.94.
Take `CC(C)N`: where the note is “basic group”, the pKa was 10.6.
For the setting “acidic group”, `Cn1c(=O)c2c([nH]c(=O)n2C)n(C)c1=O` showed a pKa of 6.
With `Cc1cccc(Cl)c1/C(=N/CCC[NH+](C)C)c1ccccc1`, the pKa (basic group) was 3.26.
On to `O=Cc1ccccc1O`, for which, under “acidic group”, the pKa was 8.36.
Same read-out and setting: with `Cn1ncnc1/N=N/O` the figure was 4.45; with `O=C1[N-]C(=S)NC(=O)C1C1C=CCCC1` (configuration not stated), 11.3.
Regarding `COc1cc(O)ccc1C(=N)c1ccccc1`, under “basic group”, the pKa amounted to 5.99.
`O=CC1=CC=CC1` yielded a pKa (acidic group) of 7.4.
